Consider two molecules from US20220160658A1, “TESOFENSINE FOR REDUCTION OF BODY WEIGHT IN PRADER-WILLI PATIENTS” (Saniona A/S, priority 2019, published 2022).

Molecules are shown by their SMILES. Values joined by “and” are separate entries in the source; they are usually repeats but may differ in a detail not shown here. Equal entries are not always repeated.

For data set [1] the following is noted: in vivo; cited from earlier work.
Data set [2] can be described thus: Phase 2a trial in adolescent PWS patients: hyperphagia score. The class given is in vivo, human. The procedure:
(§1) This study included a double blind (DB) part (3 months) and two Open Label Extensions (OLE), each 3 months. Adolescents (12 to 17 years of age) received: tesofensine 0.125 mg daily (0.25 mg every second day)+metoprolol succinate 25 mg. Example 4 relates to Example 2.
(§2) The initial double blind (DB) phase of this study utilized a dose of tesofensine of 0.125 mg daily. In the first 3-month Open Label Extension (OLE1), a dose of 0.125 mg tesofensine was maintained. In the second OLE (OLE2), the tesofensine dose, if judged safe by the principle investigator (PI), was increased to 0.25 mg daily.

A short description of data set [3]: Phase 2a trial in adolescent PWS patients: tesofensine plasma levels. It is filed as in vivo, human. The conditions noted are these: for concentration at 3 months: human, plasma, oral. The procedure: as §1, §2
Data set [4] is described as follows: Phase 2a trial in adult PWS patients: tesofensine plasma concentration. The class given is in vivo, human. The settings on record: for Mean trough plasma concentration of tesofensine: TM002 study, 0.50 mg tesofensine + 50 mg metoprolol daily. The procedure:
This exploratory Phase 2a trial comprised in of a total of nine adult patients with Prader-Willi syndrome (PWS) of which six patients received co-administration of tesofensine (0.50 mg)/metoprolol (50 mg) (A, active treatment—Tesomet) and three patients received placebo (P). The initial plan was to complete 10-20 adult subjects with PWS. However, ultimately nine patients were randomized as more subjects were not available at the two participating sites.
The main objective of this study was to examine the effect of co-administration of tesofensine/metoprolol on body weight in subjects with PWS. Further objectives were: • To establish a pharmacokinetic profile of tesofensine and metoprolol in subjects with PWS. • To examine the effect of co-administration of tesofensine/metoprolol on glycaemic control and lipid profile in subjects with PWS • To examine the effect of co-administration of tesofensine/metoprolol on HR and BP in subjects with PWS • To examine the effects of co-administration of tesofensine/metoprolol on body composition in subjects with PWS • To evaluate overall safety and tolerability of co-administration of the tesofensine/metoprolol in subjects with PWS
Arm 1) tesofensine 0.50 mg+metoprolol 50 mg administered once a day, in the morning with a meal
The study included two arms: Tesomet 0.5/50 (combination of 0.50 mg tesofensine and 50 mg of metoprolol ER) or placebo tablets matching tesofensine+metoprolol succinate, each administered once daily in the morning with a meal.
The primary endpoint was change in body weight following 91 days of treatment with either tesofensine+metoprolol or placebo. Patients were weighed throughout the study period to track changes in body weight. Secondary endpoints included change in hyperphagia-related behavior, pharmacokinetic profile, effects of co-administration of tesofensine/metoprolol on HR, BP, glycemic control, lipid profile and body composition, and safety and tolerability.

The conditions of data set [5]: cited from earlier work.
For data set [6], the system named is rat model of diet-induced obesity (DIO). The settings on record: DIO rats; cited from earlier work.
The conditions of data set [7]: cited from earlier work. This is another data set of the same source.
The nature of data set [8]: Phase 2a trial in adolescent PWS patients: body weight and BMI, random coefficients analysis. The class given is in vivo, human. The procedure: Arm 1) tesofensine 0.125 mg+metoprolol 25 mg administered once a day, in the morning with a meal-first, an initial titration dose of tesofensine 0.0625 mg+metoprolol 25 mg will be given for the first 4 weeks, in the morning with a meal. Following a favorable review of all safety data for each subject by the investigator, tesofensine 0.125 mg+metoprolol 25 mg will be given for the final 9 weeks (the above proposed dosing plan can be adjusted by the DSMB, if needed)
as §1, §2
In the random coefficients analysis, each subject was considered as having their own profile of data, i.e. their own set of weight change/hyperphagia values and corresponding pk values. The analysis was essentially conducted by fitting a regression line to each subject individually:
where j denotes subjects, j=1 to m, and i denotes the measurement with subject j, i=1 to nj. The slope βj and intercept αj estimate for each subject j=1 to m, along with their standard errors, were then obtained. In a final step, the βj and αj values were averaged across the m subjects to give the overall mean regression slope and mean intercept, βj and αj, which gives the correlation line, as well as the associated confidence interval.

Where [9] appears, read: 0.125 mg tesofensine daily (DB, OLE1).

As a reminder, the half-life is how long it takes for the measured level to halve.

For the molecule `COCCc1ccc(OCC(O)CNC(C)C)cc1` (stereo not drawn) [Metoprolol, 1-(Isopropylamino)-3-[4-(2-methoxyethyl)-phenoxy]-propan-2-ol, reference compound], in data set [1], the half-life is 3 to 4 h.

For the molecule `CCOC[C@@H]1[C@@H](c2ccc(Cl)c(Cl)c2)C[C@@H]2CC[C@H]1N2C` [Tesofensine, (1R,2R,3S,5S)-3-(3,4-dichlorophenyl)-2-(ethoxymethyl)-8-methyl-8-azabicyclo[3.2.1]octane], the serum half-life result in data set [1] is on record as “nine”. In data set [2] (DB part and OLE1, 0.125 mg tesofensine daily), the “hyperphagia scores compared to placebo” value is reported as “did not differ from placebo”. The “hyperphagia compared to placebo” value in data set [2] (DB phase, 0.125 mg tesofensine dose) is recorded as “No difference compared to placebo”. The hyperphagia scores entry in data set [2] (OLE2, 0.25 mg tesofensine) is recorded as “dropped to single digit numerical values”. Moreover, the “plasma levels of tesofensine” value in data set [3] (setting [9]) was 3 to 5 ng/mL; in data set [4] (adult PWS, 0.50 mg tesofensine and 50 mg metoprolol), 20 to 40 ng/mL. The concentration at 3 months in data set [3] (setting [9]) was in the range of 3 to 5 ng/mL; in data set [3] (0.25 mg tesofensine daily (OLE2)), 7 to 9 ng/mL. In addition, the “Mean trough plasma concentration of tesofensine” value was 18 ± 9 ng/mL in data set [4] (V5 (day 28), n = 6); 21 ± 8 ng/mL in data set [4] (V9 (day 56), n = 5); 23 ± 1 ng/mL in data set [4] (V14 (day 91), n = 2). Moreover, in data set [4] (adult PWS, 0.5 mg tesofensine, two patients), the “plasma concentration in individual patients” value was 34.1 ng/mL and 34.2 ng/mL. In addition, in data set [4] (adult PWS, dosing of 0.5 mg tesofensine, whole study), the “mean trough plasma concentration” value is on record as around 20 ng/mL. Besides, the “waist circumference and sagittal diameter” value in data set [5] (Astrup et al., 2008) is on record as “significantly decreases”. The weight loss result in data set [5] (obese patients, long-term treatment, corrected for placebo and diet effects) was “about 10%”. Besides, in data set [6], the body weight result was “robust and sustained weight loss”. For the same molecule, the “average tesofensine trough plasma concentration” value in data set [7] (TIPO-1, dose of 0.5 mg Tesofensine) is 10 ng/mL. In addition, in data set [7] (previous studies in obese individuals at the same dosages), the “efficacious target plasma levels” value is ~10 ng/mL and around 10 ng/mL. In addition, the “weight change compared to placebo” value in data set [8] (adolescent PWS, DB phase, 0.125 mg tesofensine dose) is reported as “No difference compared to placebo”. For the same molecule, in data set [8] (adolescent PWS, at 10 ng/mL tesofensine plasma level, from the correlation analysis), the decrease in weight result is reported as “around 2%”. Further, the “tesofensine plasma level that counteracts the baseline weight gain of around 3%” value in data set [8] (adolescent PWS, random coefficients analysis) was “around 6 ng/mL”. In data set [8] (random coefficients analysis, N=8, p=0.0031), the “Slope (SE), monthly BMI change versus tesofensine plasma level” value is on record as −0.478 (0.1081). Moreover, in data set [8] (random coefficients analysis, N=8, p=0.0046), the “Slope (SE), monthly body weight change versus tesofensine plasma level” value is listed as −0.460 (0.1120).
